PubChem BioAssay (NCI)
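These data come from cells grown in 96-well plates and exposed to compound for 48 hours at five concentrations. GI50 marks 50% less growth. TGI: total growth inhibition.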

What was measured:
Experiment in all cases: NCI tumour cell line growth inhibition, 48 h
SK-OV-3 ovarian = system: SK-OV-3 ovarian
M14 melanoma = system: M14 melanoma
SF-295 CNS = system: SF-295 CNS
SNB-75 CNS = system: SNB-75 CNS
CCRF-CEM leukemia = system: CCRF-CEM leukemia
NCI-H23 lung = system: NCI-H23 lung
A498 renal = system: A498 renal
SR leukemia = system: SR leukemia
SK-MEL-2 melanoma = system: SK-MEL-2 melanoma
SF-539 CNS = system: SF-539 CNS

| Compound | TGI (SK-OV-3 ovarian) | TGI (M14 melanoma) | TGI (SF-295 CNS) | TGI (SNB-75 CNS) | TGI (CCRF-CEM leukemia) | TGI (NCI-H23 lung) | TGI (A498 renal) | TGI (SR leukemia) | TGI (SK-MEL-2 melanoma) | TGI (SF-539 CNS) | GI50 (SK-OV-3 ovarian) | GI50 (SK-MEL-2 melanoma) | GI50 (M14 melanoma) | GI50 (SF-295 CNS) | GI50 (SNB-75 CNS) | GI50 (CCRF-CEM leukemia) | GI50 (NCI-H23 lung) | GI50 (SF-539 CNS) | GI50 (SR leukemia) | GI50 (A498 renal) |
| --- | --- | --- | --- | --- | --- | --- | --- | --- | --- | --- | --- | --- | --- | --- | --- | --- | --- | --- | --- | --- |
| Cc1cc(Br)cc(C)c1NC(=O)C(=O)CC(=O)c1sc(-n2nc(-c3ccccc3)cc2-c2ccccc2)nc1C | > 100 µM | > 100 µM | > 100 µM | > 100 µM | > 100 µM | > 100 µM | > 100 µM | > 100 µM |  |  |  |  |  |  |  |  |  |  |  |  |
| Cc1ccc2c(c1)NC(c1ccc(C(=O)O)cc1)c1cccn1-2 (configuration not stated) | 51.8 µM | > 100 µM | > 100 µM | 39.6 µM | > 100 µM | > 100 µM | 64.9 µM | > 100 µM | > 100 µM | > 100 µM |  |  |  |  |  |  |  |  |  |  |
| CNC(=O)OCc1nc(SC(C)C)n(C)c1COC(=O)NC | > 100 µM | > 100 µM | > 100 µM | > 100 µM | > 88 µM | > 100 µM | > 100 µM | > 100 µM | > 100 µM | > 100 µM |  |  |  |  |  |  |  |  |  |  |
| COc1cc(O)c(C(=O)/C=C/c2ccccc2)c(OC)c1 | 25.6 µM | 84.1 µM | 26.9 µM |  | 7.22 µM | 19.4 µM | 16.5 µM | 6.05 µM | 21.1 µM | 12.8 µM |  |  |  |  |  |  |  |  |  |  |
| CCCCCCCCCCCCCCCCCCNC(=O)[C@H]1CSC(c2ccc(OC)c(F)c2)N1 (some centres not stated) | > 58 µM | 3.5 µM | > 52.2 µM | 14.1 µM | 8.13 µM | 27 µM | > 38.3 µM | 2.88 µM | 5.48 µM | > 37.6 µM | > 42 µM | 2.27 µM | 1.43 µM | 26 µM | 3.1 µM | 0.731 µM | 7.22 µM | 4.67 µM | 0.641 µM |  |
| Cn1cc(-c2ccc(=O)n(Cc3cccc(-c4ncc(OCCN5CCOCC5)cn4)c3)n2)cn1 | > 100 µM | > 100 µM | > 100 µM | > 100 µM | > 100 µM | > 100 µM | > 100 µM | > 100 µM | > 100 µM | > 100 µM | > 100 µM | > 88.3 µM | 84.2 µM | 0.49 µM | > 42.5 µM | 82.1 µM | 32.9 µM | > 100 µM | 76.4 µM | 60.1 µM |
| O=C1c2ccccc2-c2c1c1ccccc1c(=O)n2CCO | > 100 µM | > 100 µM | > 96.3 µM | > 81 µM | > 100 µM | > 61.9 µM | > 100 µM | 22.5 µM | 87.2 µM | > 94.1 µM |  |  |  |  |  |  |  |  |  |  |
| Nc1cccc2c1C(=O)N(C1CCC(=O)NC1=O)C2=O (configuration not stated) | > 100 µM | > 100 µM | > 100 µM | > 100 µM | > 100 µM | > 100 µM | > 100 µM | > 100 µM | > 100 µM | > 100 µM | > 100 µM | > 100 µM | > 100 µM | > 100 µM | > 100 µM | > 100 µM | > 100 µM | > 100 µM | > 100 µM | > 100 µM |
| CC1(C)CC(=O)C2=C(C1)NC(SSC1=C(C#N)C(c3ccccc3)C3=C(CC(C)(C)CC3=O)N1)=C(C#N)C2c1ccccc1 (configuration not stated) | 59 µg/mL | 43.6 µg/mL | > 150 µg/mL | 53.3 µg/mL | > 150 µg/mL | 50.9 µg/mL | 59.8 µg/mL | 103 µg/mL | 49.8 µg/mL | 51 µg/mL | 22.9 µg/mL | 26.5 µg/mL | 22.5 µg/mL | 112 µg/mL | 29 µg/mL | 24.6 µg/mL | 27.7 µg/mL | 26.9 µg/mL | 26.5 µg/mL | 30.4 µg/mL |
| N[C@H]1C2C3CC4C5CC(C42)C1(c1ccccc1)C53 (some centres not stated) | > 100 µM | > 100 µM | > 100 µM | > 100 µM | > 100 µM | > 100 µM | > 100 µM | > 100 µM | > 100 µM | > 100 µM |  |  |  |  |  |  |  |  |  |  |
| COc1cccc(NC(=O)c2sc3nc4c(cc3c2N)CCCC4)c1 | 29.4 µM |  | 14 µM | 2.77 µM | 19.2 µM | > 100 µM | 14.2 µM | 12.7 µM | 18.6 µM | 12.8 µM | 0.473 µM | 0.69 µM |  | 0.481 µM | 0.271 µM | 0.347 µM | 0.813 µM | 0.368 µM | 0.217 µM | 0.349 µM |
| O=C1C=C[C@]2(C[C@@H](c3cccc(C(F)(F)F)c3)O[C@@H](c3cccc(C(F)(F)F)c3)O2)O1 | 28.1 µM | 23.7 µM | 17.2 µM | 16.1 µM | 13.1 µM | 18.7 µM | 9.21 µM | 5.4 µM | 6.54 µM | 3.31 µM | 14.4 µM | 2.21 µM | 4.11 µM | 4.18 µM | 2.79 µM | 2.48 µM | 4.03 µM | 1.43 µM | 0.674 µM | 1.81 µM |
| COc1c(OC(C)=O)ccc(/C=C2\N=C(C)OC2=O)c1[N+](=O)[O-] | > 100 µM | > 100 µM | > 100 µM | > 100 µM | > 100 µM |  | > 100 µM | > 100 µM | > 100 µM | > 100 µM |  |  |  |  |  |  |  |  |  |  |
| CC1(C)N=C(N)N=C(N)N1c1cccc(/C=C/C=C/c2cccc([N+](=O)[O-])c2)c1 | > 100 µM | 50.1 µM | 28.3 µM | 21.5 µM | 18.9 µM |  | 39.3 µM | 29.2 µM | 28.5 µM | 17.6 µM | 32.1 µM | 13.4 µM | 13.6 µM | 10.3 µM | 6.88 µM | 3.61 µM |  | 4.43 µM | 4.71 µM | 13 µM |
| CCCCCCCCCCCCc1ccc(C(=O)/C=C/C(=O)O)cc1 | 30.4 µM | 4.17 µM | 25.5 µM | 10.4 µM | 5.29 µM | 4.65 µM | 26.7 µM | 3.07 µM |  | 3.33 µM | 16.2 µM |  | 1.79 µM | 12.5 µM | 1.66 µM | 0.547 µM | 1.89 µM | 1.73 µM | 0.423 µM | 13.2 µM |
| CC(=O)Oc1c(C)n(CCCl)ccc1=O | > 100 µM | > 100 µM | > 100 µM | > 100 µM | > 100 µM |  | > 100 µM | > 100 µM | > 100 µM |  |  |  |  |  |  |  |  |  |  |  |
